Non-standard residues stand in square brackets, D forms with d. Residues, ends and D or L forms follow the SMILES beside them. No end group written: not given here.
Legend:
phagocytes = assay: Carbon clearance (colloidal carbon / India ink) from the blood of rats; assay type: in vivo, female Spraque-Dawley rats; conditions: for India ink (μl/ml blood) 3 min: 3 min after i.v. colloidal carbon; for India ink (μl/ml blood) 3 min / India ink (μl/ml blood) 6 min / India ink (μl/ml blood) 12 min / India ink (μl/ml blood) 24 min: 50 μg i.v. once daily for 3 days before carbon; for India ink (μl/ml blood) 6 min: 6 min after i.v. colloidal carbon; for India ink (μl/ml blood) 12 min: 12 min after i.v. colloidal carbon; for India ink (μl/ml blood) 24 min: 24 min after i.v. colloidal carbon; for Speed of action in carbon clearance compared with somatostatin: greater carbon clearance at 6 minutes than somatostatin; for Potency in carbon clearance compared with somatostatin: lower levels of carbon at the late time intervals
Method: Rats were injected either with saline or with a colloidal carbon suspension, and the time required for clearing of colloidal particles from the blood stream was measured. In a comparative experiment, zymosan, an agent known to increase the activity or phagocytes, was administered instead of the somatostatin analogue. In rats which received injections of saline, the disappearance of colloidal carbon from the blood was virtually linear, an expected result based on previous studies by others. Administration of a somatostatin analogue markedly accelerated the carbon clearance, even more so than for somatostatin itself.
(§1) All of the experiments described below were performed in female Spraque-Dawley rats (ESS Laboratories, Lynnfield, Mass.) with an initial body weight of 150-180 g, and with unlimited access to Purina laboratory chow and tap water. Control and experimental groups consisted of 3-4 rats. Each experiment was repeated at least twice and the results were pooled. Analogue I is cyclo[L-Pro-Phe-D-Trp-Lys-Thr-L-Phe]. Analogue II is cyclo[L-Phe-Phe-L-Trp-Lys-Thr-D-Phe]. These are preferred compounds for all aspects of the invention. The compound can be synthesized according to the procedure described in Veber et al., Nature, 292, 55-58 (1981), which is herein incorporated by reference. Basically, the linear peptide is prepared by a solid phase technique, for example, using a Beckman 990 peptide synthesizer following the protocol described in Strachan et al, J. Med. Chem., 22, 586-588 (1979), which is herein incorporated by reference. The linear peptide can then be cyclized by the technique of Veber et al, Proc. Natl. Acad. Sci. USA, 75, 2636-2640 (1978), which is also herein incorporated by reference. Linear or cyclic somatostatin (Serono) or a somatostatin analogue was injected under mild ether anesthesia at 50 μg in 0.5 ml of saline into the jugular vein once daily for 3 consecutive days prior to injection with carbon. Control animals were injected with the same amount of saline. In all of the carbon clearance experiments, 0.1 ml/100 g of the supernatant of centrifuged (3000 rpm/15 min) colloidal carbon (Wagner's india ink) was injected i.v. under mild ether anesthesia. Blood samples (50 μl) were obtained with heparinized glass capillaries and by puncture of the retro-orbital venous plexus at 3, 6, 12 and 24 minutes after the administration of carbon. The blood samples were lysed in 2 ml of 0.1% Na2 CO3 solution and the quantity of carbon in the blood was measured.

[1] = system: liver injury induced by phalloidin; assay: Phalloidin-induced liver and hepatic blood vessel lesions in rats; assay type: in vivo; conditions: phalloidin 0.12 mg per 100 g i.p.
Method: This toxin kills rats within about 4 hours after intraperitoneal injection. Rats injected with 0.12 mg phalloidin per 100 g body weight (i.p.) show a massive increase in liver size accompanied by hemorrhage. In a control group of rats given phalloidin but no somatostatin analogue, 22 of 24 rats died within 2-4 hours.
In both cases, rats were given saline (control), phalloidin alone, or phalloidin and a somatostatin analogue. Somatostatin analogues were given in subcutaneous injections in a solution of protamine sulfate and zinc chloride in order to prolong its effectiveness, or in normal saline.
In the biochemical experiments, the animals were also injected with Evans blue 15 min before autopsy. At autopsy the portal vein was perfused in situ with 20 ml of saline to remove blood from hepatic vaculature. Phalloidin caused a time dependent increase in the hepatic uptake of Evans blue, indicative of leakage of blood into the tissue through blood vessel lesions. Somatostatin analogue treatment virtually abolished this enhanced uptake of the dye. In the morphologic experiments, groups of rats were also injected with colloidal carbon (India ink, […] i.v.) 15 min before autopsy. At that time pieces of liver were processed for subsequent light or electron microscopic studies. […]

[2] = system: liver injury induced by galactosamine; assay: Galactosamine-induced liver injury (hepatic necrosis and inflammation) in rats; assay type: in vivo, female Spraque-Dawley rats; conditions: 28 hr after galactosamine 1 g/kg i.p., somatostatin 250 μg, analogues 125 μg i.p.; for Liver histology (Scale: 0-4): scale 0-4, 4 = greatest damage
Method: as §1
The liver protection studies included the effect of somatostatin and analogues on liver injury induced by galactosamine or phalloidin. Galactosamine-induced hepatic necrosis and inflammation was produced by injecting rats with 1 g/kg of galactosamine i.p. at 0 hr. Regular somatostatin was injected at 250 μg, analogues at 125 μg i.p. at -30 and […]. The animals were killed at 28 hr after galactosamine. Liver damage was measured by the elevation of serum transaminase (SGOT) and by liver histology (scale: 0-4 with 4 indicating the greatest damage).

| Compound | India ink (μl/ml blood) 3 min (phagocytes) [μl/ml blood] | India ink (μl/ml blood) 6 min (phagocytes) [μl/ml blood] | India ink (μl/ml blood) 12 min (phagocytes) [μl/ml blood] | India ink (μl/ml blood) 24 min (phagocytes) [μl/ml blood] | Histologic examination of the liver after phalloidin [1] | Mortality after phalloidin ([1]; control 22 of 24 rats died) | SGOT (U/l) [2] [U/l] | Liver histology (Scale: 0-4) [2] | Speed of action in carbon clearance compared with somatostatin (phagocytes) | Potency in carbon clearance compared with somatostatin (phagocytes) |
| --- | --- | --- | --- | --- | --- | --- | --- | --- | --- | --- |
| C[C@H](N)C(=O)NCC(=O)N[C@H]1CSSC[C@@H](C(=O)O)NC(=O)[C@H](CO)NC(=O)[C@H]([C@@H](C)O)NC(=O)[C@H](Cc2ccccc2)NC(=O)[C@H]([C@@H](C)O)NC(=O)[C@H](CCCCN)NC(=O)[C@H](Cc2c[nH]c3ccccc23)NC(=O)[C@H](Cc2ccccc2)NC(=O)[C@H](Cc2ccccc2)NC(=O)[C@H](CC(N)=O)NC(=O)[C@H](CCCCN)NC1=O [Regular linear somatostatin, somatostatin] | 11.7 ± 0.1 | 11.9 ± 2.6 | 5.3 ± 1.4 | 2.6 ± 0.1 |  |  |  |  |  |  |
| somatostatin (AGCKNFFWKTFTSC; not fully specified (bridges); cysteine pairing not given here; UniProt P61278 103-116, looked up) [cyclic tetradecapeptide hormone, reference compound] |  |  |  |  | milder vacuolization of hepatocytes and less congestion | significantly smaller number of rats | 1757 ± 681 | 2.6 ± 0.3 |  |  |
| C[C@@H](O)[C@@H]1NC(=O)[C@H](CCCCN)NC(=O)[C@@H](Cc2c[nH]c3ccccc23)NC(=O)[C@H](Cc2ccccc2)NC(=O)[C@@H]2CCCN2C(=O)[C@H](Cc2ccccc2)NC1=O [Analogue I, cyclo[L-Pro-Phe-D-Trp-Lys-Thr-L-Phe]] (cyclo(PF[dW]KTF)) | 12.5 ± 3.0 | 6.9 ± 0.9 | 2.6 ± 0.7 | 2.4 ± 0.5 |  |  | 573 ± 138 | 1.1 ± 0.1 | faster acting | more potent than somatostatin |
| C[C@@H](O)[C@@H]1NC(=O)[C@H](CCCCN)NC(=O)[C@H](Cc2c[nH]c3ccccc23)NC(=O)[C@H](Cc2ccccc2)NC(=O)[C@H](Cc2ccccc2)NC(=O)[C@@H](Cc2ccccc2)NC1=O [Analogue II, cyclo[L-Phe-Phe-L-Trp-Lys-Thr-D-Phe]] (cyclo(FFWKT[dF])) | 13.2 ± 2.0 | 5.6 ± 0.5 | 3.2 ± 0.9 | 1.8 ± 0.2 |  |  | 700 | 1.0 | faster acting | more potent than somatostatin |

Reference: patent US4612302A, “Clinical use of somatostatin analogues” (Brigham and Women's Hospital, priority 1983, dated 1986)
